Where two headings read alike, the source gives them in different places.
Legend:
[1] = Susceptibility to enzymatic degradation to the benzoic acid derivative; type: in vitro ADME
mice = conditions: mouse, in vivo; cited from earlier work
guinea-pigs = conditions: guinea pig, in vivo; cited from earlier work
[2] = system: reproductive organs of male rats; conditions: rat, in vivo; cited from earlier work
primates = conditions: cited from earlier work
[3] = dogs; cited from earlier work
[4] = system: reproductive organs of dogs; conditions: dog, in vivo; cited from earlier work
[5] = rats; cited from earlier work
fatty acid synthesis = conditions: in vitro; cited from earlier work
glucose synthesis = conditions: in vitro; cited from earlier work
male rats = conditions: cited from earlier work

Compound: Cc1cc(CC(C)C)ccc1CCC=O [(I), 3-(4-Isobutyl-2-methylphenyl)propanal]
- enzymatic degradation to its benzoic acid derivative [1]: not susceptible

Compound: CC(C=O)Cc1ccc(C(C)(C)C)cc1 (centres unmarked) [Lilial, 3-(4-tert-butylphenyl)-2-methylpropanal]
- toxic effects (mice): No effects
- toxic effects (guinea-pigs): No effects
- toxic effects on the reproductive organs [2]: toxic effects
- toxic effects (primates): No effects
- enzymatic degradation to tert-butyl benzoic acid (t-BBA) [3]: enzymatically degraded
- toxic effects on the reproductive organs [4]: toxic effects
- enzymatic degradation to tert-butyl benzoic acid (t-BBA) [5]: enzymatically degraded

Compound: CC(C)(C)c1ccc(C(=O)O)cc1 [tert-butyl benzoic acid]
- inhibition of fatty acid synthesis (fatty acid synthesis): inhibit
- inhibition of glucose synthesis (glucose synthesis): inhibit
- testicular effects (male rats): testicular effects
